Measurements: US20230355644A1, “ACTIVE INGREDIENTS AND DRUGS FOR THE THERAPY OF VIRAL DISEASES, ESPECIALLY CORONA INFECTIONS, ESPECIALLY COVID-19” (Creative Therapeutics GmbH, priority 2020, published 2023)
Read-outs that look alike come from different tables or passages of the source.

Legend:
SARS-CoV-2 [1] = experiment: therapeutic effect against SARS-CoV-2 infection in mouse model; assay type: in vivo; details: K18-hACE2 transgenic mice; intra-peritoneal 150 mg/kg 30 minutes before and 500 mg/kg three hours after infection; two days post infection
Experimental: Studies of the Therapeutic Effect in the Mouse Model • To investigate the therapeutic effect of compound (VI-A) against SARS-CoV-2 infection in mouse model, K18-hACE2 transgenic mice were used. The viruses used were a German isolate of SARS-CoV-2. The study was conducted as a feasibility study with two groups (test group, control group) based on six mice each, i.e. a total of 12 animals. The two groups of mice were mildly anesthetized by inhalation of 3% isoflurane and intranasally inoculated with 300 KWSIU (FFU) of SARS-CoV-2. Treatment with the compound (VI-A) was performed by intra-peritoneal injection or application. Treatment of the first group began 30 minutes before infection with a compound concentration or dosage of 150 mg/kg. In addition, three hours after infection, the test mice were administered another 500 mg/kg of the compound (dissolved in 100 μl total volume of simply concentrated PBS buffer with pH 7.4). In the second group (positive control or control group), the mice were infected equally but treated with PBS buffer alone without the addition of diphenyl derivatives or triazenes (sham treatment). Two days post infection, the animals were euthanized. The clinical score (“clinical score”), comprising the recording of weight and clinical signs, of the animals was determined. To determine the success of therapy, the viral load in the lungs was determined by qPCR.

HI-viruses = experiment: EASY-HIT assay; assay type: cell-based
[2] = system: UWB1,289 ovarian cancer cells; experiment: whole transcriptome sequencing (RNA-Seq) of treated ovarian cancer cells; assay type: cell-based; details: 24 hours; for CDKN1A transcription / DNA repair systems (MMR, BER, NER, ATM/ATR, HR) down-regulated at the transcription level / changes in the transcriptome versus non-treated controls (PCA plot, number of differentially transcribed genes) / expression of CDK family genes / CDK proteins / expression of DNA repair enzymes / transcripts of DNA repair systems: 1,000 μM compound (IV-A3) or 40 μM compound (III-A)
SARS-CoV-2 [3] = assay type: cell-based; details: Caco-2 cells; for decrease in viral load versus untreated cells (100%): strongest dilution 1/4000 (25 μg/ml)
SARS-CoV-2 [4] = assay type: cell-based; details: Vero-E6 cells; dilutions 1/4000 to 1/500; FIGS. 3A and 3B
COVID-19 = details: in vivo; cited from earlier work
[5] = dilutions 1/4000 to 1/500, FIGS. 2A and 2B

Question: For CN(C)/N=N/c1ccc(C(=O)c2ccc(OS(=O)(=O)O)cc2)cc1 [compound (IV-A)], which “viral load in the lungs by qPCR versus positive control group” value (SARS-CoV-2 [1]) is on record?
Answer: significantly reduced viral load in the lungs

Question: What about the “inhibitory effect on HI-viruses” value (HI-viruses) of the same compound?
Answer: first inhibitory effect

Question: Which CDKN1A transcription [2] does the source give for CN(C)/N=N/c1ccc(C(=O)c2ccc(O)cc2)cc1 [compound (III-A)] here?
Answer: consistent upregulation

Question: What about the “DNA repair systems (MMR, BER, NER, ATM/ATR, HR) down-regulated at the transcription level” value [2] of the same compound?
Answer: −1.09 log 2FC

Question: And the “changes in the transcriptome versus non-treated controls (PCA plot, number of differentially transcribed genes)” value [2]?
Answer: sufficient change in the transcriptome

Question: And the “expression of CDK family genes / CDK proteins” value [2]?
Answer: downregulation

Question: And the “expression of DNA repair enzymes / transcripts of DNA repair systems” value [2]?
Answer: downregulation

Question: What does the source list for CN(C)N=Nc1ccc(C(=O)c2ccc(OS(=O)(=O)[O-])cc2)cc1.[Na+] [compound (IV-A3)]?
Answer: CDKN1A transcription [2]: strongly induced; DNA repair systems (MMR, BER, NER, ATM/ATR, HR) down-regulated at the transcription level [2]: −1.09 log 2FC; changes in the transcriptome versus non-treated controls (PCA plot, number of differentially transcribed genes) [2]: more pronounced changes in the transcriptome than compound (III-A); expression of CDK family genes / CDK proteins [2]: marked down regulation; expression of DNA repair enzymes / transcripts of DNA repair systems [2]: extensive downregulation; induction of CDKN1A ([2]; 1,000 μM compound (IV-A3), genes differentially expressed in both UWB1,289 cell lines): 4.49 log 2FC; expression of cadherin cell adhesion molecule genes, particularly CDH6 ([2]; 1,000 μM): downregulated; expression of DNA dealkylation pathway proteins (APEX1, TET1, ALKBH2) ([2]; 1,000 μM, both cell lines): consistently downregulated

Question: For CN(C)/N=N/c1ccc(C(=O)c2ccc(O)cc2)cc1 [compound (IV-B)], which “viral load in the lungs by qPCR versus positive control group” value (SARS-CoV-2 [1]) is on record?
Answer: significantly reduced viral load in the lungs

Question: And the “decrease in viral load in treated versus untreated cells” value (SARS-CoV-2 [3]; [5])?
Answer: Particularly good results

Question: What about the “decrease in viral load versus untreated cells (100%)” value (SARS-CoV-2 [3]; FIG. 2A) of the same compound?
Answer: 50%

Question: What about the “decrease in viral load versus untreated cells (100%)” value (SARS-CoV-2 [3]; FIG. 2B) of the same compound?
Answer: 40%

Question: And the “decrease in viral load in treated versus untreated cells” value (SARS-CoV-2 [4])?
Answer: significant decrease in viral load

Question: What about the “inhibitory effect on HI-viruses” value (HI-viruses) of the same compound?
Answer: first inhibitory effect

Question: Which “efficacy in COVID-19” value (COVID-19) does the source give for “Tocilizumab: monoclonal antibody approved for the treatment of various forms of rheumatoid arthritis and cytokine release syndrome” here?
Answer: ineffective

Question: With CCN(CC)CCCC(C)Nc1ccnc2cc(Cl)ccc12 (stereo not drawn) [Chloroquine] as the compound, how does the “efficacy in COVID-19” value (COVID-19) read?
Answer: no evidence of efficacy

Question: For CCN(CCO)CCCC(C)Nc1ccnc2cc(Cl)ccc12 (stereo not drawn) [hydroxychloroquine], which “efficacy in COVID-19” value (COVID-19) is on record?
Answer: no evidence of efficacy

Question: Which “viral load in the lungs by qPCR versus positive control group” value (SARS-CoV-2 [1]) does the source give for CN(C)/N=N/c1ccc(C(=O)c2ccc(OCCC(=O)O)cc2)cc1 [compound (VIII-A)] here?
Answer: significantly reduced viral load in the lungs

Question: And the “decrease in viral load in treated versus untreated cells” value (SARS-CoV-2 [3]; dilution of 1/500 (1000 μg/ml))?
Answer: best results in terms of viral load decrease

Question: And the “decrease in viral load in treated versus untreated cells” value (SARS-CoV-2 [3]; [5])?
Answer: Particularly good results

Question: And the “decrease in viral load in treated versus untreated cells” value (SARS-CoV-2 [4])?
Answer: greatest decrease in viral load

Question: What about the “inhibitory effect on HI-viruses” value (HI-viruses) of the same compound?
Answer: first inhibitory effect

Question: What does the source list for CN(C)/N=N/c1ccc(C(=O)c2ccc(OCCC(=O)NCC(=O)O)cc2)cc1 [compound (VI-A)]?
Answer: histological examination of the lung tissue versus control group (SARS-CoV-2 [1]): significantly reduced incidence of infection; viral load in the lungs by qPCR versus positive control group (SARS-CoV-2 [1]): significantly lower; decrease in viral load in treated versus untreated cells (SARS-CoV-2 [4]): significant decrease in viral load; inhibitory effect on HI-viruses (HI-viruses): first inhibitory effect
